Results taken from ChEMBL document CHEMBL1150883, “Antitumor-promoting naphthoquinones from Catalpa ovata” (J Nat Prod, 1998).

What was measured:
Type in all cases: cell-based
Raji [1] = assay: Inhibition of 12-O-tetradecanoylphorbol-13-acetate induced EBV-early antigen activation in human Raji cells at 10 molar ratio per 32 pmol/ml TPA by immunofluorescence technique relative to control; parameters: Activity: scale not given: the % may be the effect or the level left; settings: human gammaherpesvirus 4
[2] = Cytotoxicity against human Raji cells assessed as cell viability at 1000 molar ratio after 48 hrs; settings: read-out: Activity
Raji [3] = assay: Inhibition of 12-O-tetradecanoylphorbol-13-acetate induced EBV-early antigen activation in human Raji cells at 1000 molar ratio per 32 pmol/ml TPA by immunofluorescence technique relative to control; parameters: scale not given: the % may be the effect or the level left; settings: human gammaherpesvirus 4
[4] = Cytotoxicity against human Raji cells assessed as cell viability at 500 molar ratio after 48 hrs; settings: read-out: Activity

| Compound | EBV-EA activation remaining (% of TPA control) (Raji [1]) | viability at 48 h, 1000 molar ratio [2] | Activity (Raji [3]) | Activity (Raji [1]) | viability at 48 h, 500 molar ratio [4] |
| --- | --- | --- | --- | --- | --- |
| CC1(C)C[C@H](O)[C@H]2C(=O)c3ccccc3[C@@H](O)[C@@H]2O1 | 93.8% | 70% | 0% | – | – |
| CC1(C)CC=C(C2OC(=O)c3ccccc32)C(=O)O1 (stereo not drawn) [CATALPALACTONE] | 89.5% | 70% | 0% | – | – |
| COc1cccc2c1C(=O)C1=C(CCC(C)(C)O1)C2=O | 100% | 70% | 83.8% | – | – |
| CC1=C(/C=C/C(C)=C/C=C/C(C)=C/C=C/C=C(C)/C=C/C=C(C)/C=C/C2=C(C)CCCC2(C)C)C(C)(C)CCC1 [BETA CAROTENE] | 100% | 70% | 8.6% | – | – |
| C=C(C)[C@H]1CC2=C(O1)C(=O)c1c(OC)cccc1C2=O | – | 60% | 0% | 100% | – |
| CC1(C)C[C@H](O)C2=C(O1)C(=O)c1c(O)cccc1C2=O | 100% | 60% | 36.1% | – | – |
| CC1(C)C[C@H](O)C2=C(O1)C(=O)c1ccccc1C2=O | 86.7% | 60% | 11.2% | – | – |
| COc1cccc2c1C(=O)C1=C(C(=O)CC(C)(C)O1)C2=O | 100% | 70% | 32.7% | – | – |
| C=C(C)[C@@H]1OC2=C(C(=O)c3ccccc3C2=O)[C@@H]1O | 88.5% | 30% | 0% | – | 60% |
